# According to ChEMBL document CHEMBL1201862, “PubChem BioAssay data set” (2004):
#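 All cell lines were grown in 96-well plates and treated with compound for 48 hours. Here, GI50 denotes the concentration required for 50% inhibition of growth.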 Calls of active or inactive are those of the source. No stated cut-off is given here; in the data, active = GI50 up to about 1.1 µM and inactive = higher.
# Experiments:
# Experiment in all cases: NCI tumour cell line growth inhibition, 48 h
# A498 = system: A498
# CAKI-1 = system: CAKI-1
# CCRF-CEM = system: CCRF-CEM
# COLO 205 = system: COLO 205
# DU-145 = system: DU-145
# EKVX = system: EKVX
# HCC 2998 = system: HCC 2998
# HCT-116 = system: HCT-116
# HCT-15 = system: HCT-15
# HOP-62 = system: HOP-62
# HOP-92 = system: HOP-92
# LOX IMVI = system: LOX IMVI
# M14 = system: M14
# Malme-3M = system: Malme-3M
# NCI-H522 = system: NCI-H522
# OVCAR-4 = system: OVCAR-4
# RXF 393 = system: RXF 393
# SF-539 = system: SF-539
# T47D = system: T47D
# UACC-62 = system: UACC-62
smiles,measurement,setting,value
C/C1=C\[C@H](C)C[C@H](C)OC(=O)C[C@H](c2ccc(O)cc2)NC(=O)[C@@H](Cc2c(Br)[nH]c3ccccc23)N(C)C(=O)[C@H](C)NC(=O)[C@@H](C)C1 [JASPAMIDE],GI50,A498,22.4 nM (active)
same,GI50,CAKI-1,92 nM (active)
same,GI50,CCRF-CEM,20.9 nM (active)
same,GI50,COLO 205,207 nM (active)
same,GI50,DU-145,59.4 nM (active)
same,GI50,EKVX,275 nM (active)
same,GI50,HCC 2998,49.9 nM (active)
same,GI50,HCT-116,196 nM (active)
same,GI50,HCT-15,834 nM
same,GI50,HOP-62,329 nM (active)
same,GI50,HOP-92,237 nM (active)
same,GI50,LOX IMVI,122 nM (active)
same,GI50,M14,211 nM (active)
same,GI50,Malme-3M,148 nM (active)
same,GI50,NCI-H522,203 nM (active)
same,GI50,OVCAR-4,173 nM (active)
same,GI50,RXF 393,36.9 nM (active)
same,GI50,SF-539,24.9 nM (active)
same,GI50,T47D,51.2 nM (active)
same,GI50,UACC-62,219 nM (active)
